Laboratory results from patent US12590066B2, “Fused-heterocyclyl-carbonohydrazonoyl dicyanide compounds and use thereof” (KOREA INSTITUTE OF SCIENCE AND TECHNOLOGY, priority 2020, dated 2026).

How the values were obtained:
Assay in all cases: Inhibitory effect on CYP coenzyme activity, human liver microsomes
Type in all cases: in vitro ADME
CYP1A2 = target: T1, CYP1A2 (Homo sapiens, UniProt P05177); conditions: 10 μM compound, human liver microsomes 0.25 mg/mL, substrate phenacetin, 15 minutes
T1 construct: human liver microsomes (0.25 mg/mL); from tissue; host or cells: human liver microsomes
T1 sequence (P05177 1-516): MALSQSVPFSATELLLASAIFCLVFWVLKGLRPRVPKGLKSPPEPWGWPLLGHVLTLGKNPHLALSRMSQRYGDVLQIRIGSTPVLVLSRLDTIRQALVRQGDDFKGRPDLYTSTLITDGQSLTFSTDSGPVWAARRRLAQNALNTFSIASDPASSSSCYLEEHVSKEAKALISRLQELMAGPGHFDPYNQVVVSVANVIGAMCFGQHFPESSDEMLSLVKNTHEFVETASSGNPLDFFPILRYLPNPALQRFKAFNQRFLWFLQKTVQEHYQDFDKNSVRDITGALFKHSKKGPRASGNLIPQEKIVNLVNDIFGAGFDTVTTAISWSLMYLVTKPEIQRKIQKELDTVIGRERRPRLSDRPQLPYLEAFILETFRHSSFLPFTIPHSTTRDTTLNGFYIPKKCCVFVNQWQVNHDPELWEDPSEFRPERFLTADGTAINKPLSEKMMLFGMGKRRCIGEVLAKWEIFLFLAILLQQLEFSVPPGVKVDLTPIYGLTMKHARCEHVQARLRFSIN
Summary of the method: (§1)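 Human liver microsomes (0.25 mg/mL) in 0.1 M phosphate pH 7.4 were preincubated 5 min at 37 °C with a substrate cocktail (50 μM phenacetin, 10 μM diclofenac, 100 μM S-mephenytoin, 5 μM dextromethorphan, 2.5 μM midazolam) and 10 μM compound, then run 15 min with NADPH-generating system. Metabolites quantified by LC-MS/MS (MRM); activity expressed as % of untreated control.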

CYP2D6 = target: T2, CYP2D6 (Homo sapiens, UniProt P10635); conditions: 10 μM compound, human liver microsomes 0.25 mg/mL, substrate dextromethorphan, 15 minutes
T2 construct: human liver microsomes (0.25 mg/mL); from tissue; host or cells: human liver microsomes
Summary of the method: as §1

CYP2C9 = target: T3, CYP2C9 (Homo sapiens, UniProt P11712); conditions: 10 μM compound, human liver microsomes 0.25 mg/mL, substrate diclofenac, 15 minutes
T3 construct: human liver microsomes (0.25 mg/mL); from tissue; host or cells: human liver microsomes
Summary of the method: as §1

CYP2C19 = target: T4, CYP2C19 (Homo sapiens, UniProt P33261); conditions: 10 μM compound, human liver microsomes 0.25 mg/mL, substrate S-mephenytoin, 15 minutes
T4 construct: human liver microsomes (0.25 mg/mL); from tissue; host or cells: human liver microsomes
Summary of the method: as §1

CYP3A4 = target: T5, CYP3A4 (Homo sapiens, UniProt P08684); conditions: 10 μM compound, human liver microsomes 0.25 mg/mL, substrate midazolam, 15 minutes
T5 construct: human liver microsomes (0.25 mg/mL); from tissue; host or cells: human liver microsomes
Summary of the method: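 Cocktail inhibition: HLM 0.25 mg/mL, 0.1 M PO4 pH 7.4, 37 °C; 5 min preinc., then 15 min + NADPH regen.; cpd 10 μM; probes phenacetin/diclofenac/S-mephenytoin/dextromethorphan/midazolam at 50/10/100/5/2.5 μM; LC-MS/MS MRM; % remaining activity vs no-compound control.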

T4 sequence (P33261 whole entry): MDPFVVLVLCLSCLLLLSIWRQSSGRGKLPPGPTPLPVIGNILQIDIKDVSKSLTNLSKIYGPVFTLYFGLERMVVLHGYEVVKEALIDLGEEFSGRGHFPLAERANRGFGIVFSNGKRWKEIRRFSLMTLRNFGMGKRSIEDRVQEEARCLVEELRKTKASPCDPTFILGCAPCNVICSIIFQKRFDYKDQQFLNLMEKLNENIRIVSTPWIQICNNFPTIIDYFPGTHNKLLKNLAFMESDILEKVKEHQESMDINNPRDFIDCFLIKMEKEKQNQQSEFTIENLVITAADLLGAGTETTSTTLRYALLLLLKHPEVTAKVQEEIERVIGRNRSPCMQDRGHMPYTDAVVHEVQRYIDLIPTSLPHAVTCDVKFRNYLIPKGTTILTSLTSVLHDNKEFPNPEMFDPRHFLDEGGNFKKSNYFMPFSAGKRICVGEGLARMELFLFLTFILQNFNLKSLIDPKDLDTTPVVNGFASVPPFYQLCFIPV
T2 sequence (P10635 whole entry): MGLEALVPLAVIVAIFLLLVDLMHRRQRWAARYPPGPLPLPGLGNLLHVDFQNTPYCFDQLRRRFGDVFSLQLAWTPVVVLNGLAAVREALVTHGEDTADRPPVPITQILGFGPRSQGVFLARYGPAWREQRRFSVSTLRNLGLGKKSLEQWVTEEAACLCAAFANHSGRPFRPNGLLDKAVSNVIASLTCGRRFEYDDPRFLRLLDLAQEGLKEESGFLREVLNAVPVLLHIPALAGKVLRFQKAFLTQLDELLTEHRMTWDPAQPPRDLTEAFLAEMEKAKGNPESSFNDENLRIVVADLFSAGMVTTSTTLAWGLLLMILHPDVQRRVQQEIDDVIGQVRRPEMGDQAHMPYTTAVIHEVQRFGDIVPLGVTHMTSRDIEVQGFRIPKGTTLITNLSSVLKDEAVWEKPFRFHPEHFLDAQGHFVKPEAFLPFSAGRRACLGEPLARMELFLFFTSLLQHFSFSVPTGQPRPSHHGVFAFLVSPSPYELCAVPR
T3 sequence (P11712 whole entry): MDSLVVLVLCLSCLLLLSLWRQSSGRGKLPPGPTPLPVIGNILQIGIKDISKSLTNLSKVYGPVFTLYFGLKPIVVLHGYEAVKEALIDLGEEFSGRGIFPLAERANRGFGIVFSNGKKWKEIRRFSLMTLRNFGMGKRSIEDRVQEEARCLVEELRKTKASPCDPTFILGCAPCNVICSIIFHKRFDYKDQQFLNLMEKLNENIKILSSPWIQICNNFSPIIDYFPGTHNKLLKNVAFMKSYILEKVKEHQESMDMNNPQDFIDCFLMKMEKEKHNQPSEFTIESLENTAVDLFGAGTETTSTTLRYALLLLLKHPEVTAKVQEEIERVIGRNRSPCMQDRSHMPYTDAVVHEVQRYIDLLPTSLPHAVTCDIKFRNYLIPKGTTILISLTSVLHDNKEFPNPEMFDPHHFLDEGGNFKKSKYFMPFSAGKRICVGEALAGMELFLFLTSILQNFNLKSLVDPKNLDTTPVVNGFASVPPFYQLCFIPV
T5 sequence (P08684 whole entry): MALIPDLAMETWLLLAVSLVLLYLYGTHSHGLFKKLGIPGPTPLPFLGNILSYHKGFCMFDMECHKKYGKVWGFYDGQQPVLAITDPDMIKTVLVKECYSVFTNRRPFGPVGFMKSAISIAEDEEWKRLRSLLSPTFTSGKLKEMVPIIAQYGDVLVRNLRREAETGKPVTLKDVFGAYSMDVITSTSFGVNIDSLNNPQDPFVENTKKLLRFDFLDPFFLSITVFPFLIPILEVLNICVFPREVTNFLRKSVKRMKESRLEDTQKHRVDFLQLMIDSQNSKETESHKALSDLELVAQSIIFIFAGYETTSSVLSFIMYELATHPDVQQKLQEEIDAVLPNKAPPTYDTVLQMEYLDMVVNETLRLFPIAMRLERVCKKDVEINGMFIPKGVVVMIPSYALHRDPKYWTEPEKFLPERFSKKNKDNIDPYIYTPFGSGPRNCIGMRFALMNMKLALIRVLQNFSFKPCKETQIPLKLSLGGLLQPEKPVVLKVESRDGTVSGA

Row | Structure (SMILES) | CYP1A2 coenzyme activity (%) with respect to control group not treated (CYP1A2) [%] | CYP2D6 coenzyme activity (%) with respect to control group not treated (CYP2D6) [%] | CYP2C9 coenzyme activity (%) with respect to control group not treated (CYP2C9) [%] | CYP2C19 coenzyme activity (%) with respect to control group not treated (CYP2C19) [%] | CYP3A4 coenzyme activity (%) with respect to control group not treated (CYP3A4) [%]
1 | CC(C)n1c(=O)sc2cc(NN=C(C#N)C#N)ccc21 [Compound 18, (3-isopropyl-2-oxo-2,3-dihydrobenzo[d]thiazol-6-yl)carbonohydrazonoyl dicyanide] | 81.4 | 88.1 | 7.5 | 63.2 | 78.3
2 | Cn1c(=O)sc2cc(NN=C(C#N)C#N)ccc21 [Compound 14, (3-methyl-2-oxo-2,3-dihydrobenzo[d]thiazol-6-yl)carbonohydrazonoyl dicyanide] | 81.6 | 85.6 | 19.5 | 68.8 | 91.2
3 | CC(C)n1c(=O)n(C2CC2)c2ccc(NN=C(C#N)C#N)cc21 [Compound 42, (1-cyclopropyl-3-isopropyl-2-oxo-2,3-dihydro-1H-benzo[d]imidazol-5-yl)carbonohydrazonoyl dicyanide] | 91.9 | >100 | 59.6 | >100 | 93.5
4 | Cn1ccc2ccc(NN=C(C#N)C#N)cc2c1=O [Compound 2, (2-methyl-1-oxo-1,2-dihydroisoquinolin-7-yl)carbonohydrazonoyl dicyanide] | 43.5 | 94.3 | 77.9 | 79.2 | 89
5 | N#CC(C#N)=NNc1ccc2[nH]c(=O)oc2c1 [Compound 15, (2-oxo-2,3-dihydrobenzo[d]oxazol-6-yl)carbonohydrazonoyl dicyanide] | 87.3 | >100 | 59.4 | 90.3 | 98.3
6 | CCn1c(=O)n(C)c2ccc(NN=C(C#N)C#N)cc21 [Compound 35, (3-ethyl-1-methyl-2-oxo-2,3-dihydro-1H-benzo[d]imidazol-5-yl)carbonohydrazonoyl dicyanide] | 93.1 | >100 | 72.5 | 100 | >100
7 | Cn1c(=O)[nH]c2cc(NN=C(C#N)C#N)ccc21 [Compound 17, (1-methyl-2-oxo-2,3-dihydro-1H-benzo[d]imidazol-5-yl)carbonohydrazonoyl dicyanide] | 32.1 | 87.1 | 81.2 | 80.4 | 89
